Measurements reported in patent US8211929B2, “Pyrimidine derivatives as kinase modulators and method of use” (Exelixis, Inc., priority 2004, dated 2012).
pIC50: −log10 of the molar value. Read-outs that look alike come from different tables or passages of the source. One block for each compound: values may come before it.

What was measured:
[1] = target: T1, (Homo sapiens, UniProt P08069); test: IGF1R kinase assay (LCCA), IGF 0P; type: biochemical
T1 construct: human IGF1R kinase domain residues M954-C1367; made in house; host or cells: baculovirus expression (insect cells)
T1 sequence (P08069 954-1367): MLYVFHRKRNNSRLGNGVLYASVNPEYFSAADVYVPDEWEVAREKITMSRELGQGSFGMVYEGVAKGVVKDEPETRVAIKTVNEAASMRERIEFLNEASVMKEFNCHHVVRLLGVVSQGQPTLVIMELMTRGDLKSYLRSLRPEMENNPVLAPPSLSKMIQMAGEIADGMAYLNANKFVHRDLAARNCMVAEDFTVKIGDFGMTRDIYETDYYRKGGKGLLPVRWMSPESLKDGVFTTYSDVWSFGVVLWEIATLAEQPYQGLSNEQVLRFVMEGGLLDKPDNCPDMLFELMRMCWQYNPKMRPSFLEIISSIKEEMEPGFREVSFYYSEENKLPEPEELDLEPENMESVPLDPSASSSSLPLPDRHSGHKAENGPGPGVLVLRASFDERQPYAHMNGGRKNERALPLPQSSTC
Method: (§1) Kinase activity and compound inhibition are investigated using one or more of the three assay formats described below. The ATP concentrations for each assay are selected to be close to the Michaelis-Menten constant (KM) for each individual kinase. Dose-response experiments are performed at 10 different inhibitor concentrations in a 384-well plate format. […] Y=Min+(Max−Min)/(1+(X/IC50)^H) Equation (2)
(§2) IGF1R kinase biochemical activity was assessed using a Luciferase-Coupled Chemiluminescent Kinase assay (LCCA) format. Kinase activity was measured as the percent ATP remaining following the kinase reaction. Remaining ATP was detected by luciferase-luciferin-coupled chemiluminescence. Specifically, the reaction was initiated by mixing test compounds, 3 μM ATP, 4 μM poly EY peptide and 4 nM IGF1R (baculovirus expressed human IGF1R kinase domain residues M954-C1367) in a 20 uL assay buffer (20 mM Tris-HCL pH7.5, 10 mM MgCl2, 0.02% Triton X-100, 1 mM DTT, 2 mM MnCl2). The mixture is incubated at ambient temperature for 2 hours after which 20 uL luciferase-luciferin mix is added and the chemiluminescent signal read using a Wallac Victor^2 reader.

[2] = target: T2, IGF 3P (Homo sapiens, UniProt P08069); test: IGF1R kinase assay (LCCA), IGF 3P; type: biochemical
T2 construct: human IGF1R kinase domain residues M954-C1367; made in house; host or cells: baculovirus expression (insect cells)
T2 sequence (P08069 954-1367): as above
Method: as §1, §2

pIC50 ([1]; IGF1R kinase LCCA assay): < 5.30
pIC50 ([2]; IGF1R kinase LCCA assay): < 5.30
SMILES: CC(=O)Nc1cnc(Nc2ccccc2Cl)nc1Nc1cc(C2CC2)n[nH]1 [Example 280]

pIC50 ([1]; IGF1R kinase LCCA assay): < 5.30
pIC50 ([2]; IGF1R kinase LCCA assay): 5.30 to 6.30
SMILES: Brc1cnc(N2CCOCC2)nc1Nc1cc(C2CC2)[nH]n1 [Example 200]

pIC50 ([1]; IGF1R kinase LCCA assay): 5.30 to 6.30
pIC50 ([2]; IGF1R kinase LCCA assay): 6.30 to 7.30
SMILES: CC(C)CNc1ncc(Br)c(Nc2cc(C3CC3)[nH]n2)n1 [Example 118]

pIC50 ([1]; IGF1R kinase LCCA assay): < 5.30
pIC50 ([2]; IGF1R kinase LCCA assay): 5.30 to 6.30
SMILES: Brc1cnc(NC2CCNCC2)nc1Nc1cc(C2CC2)[nH]n1 [Example 214]

pIC50 ([1]; IGF1R kinase LCCA assay): < 5.30
pIC50 ([2]; IGF1R kinase LCCA assay): < 5.30
SMILES: CCN(CC)CCNC(=O)CCc1ccc(Nc2nc(C)cc(Nc3ccccc3)n2)cc1 [Example 310]

pIC50 ([1]; IGF1R kinase LCCA assay): < 5.30
pIC50 ([2]; IGF1R kinase LCCA assay): 5.30 to 6.30
SMILES: Clc1ccc(CCNc2ncc(Br)c(Nc3cc(C4CC4)n[nH]3)n2)c(Cl)c1 [Example 240]

pIC50 ([1]; IGF1R kinase LCCA assay): 5.30 to 6.30
pIC50 ([2]; IGF1R kinase LCCA assay): 6.30 to 7.30
SMILES: Brc1cnc(Nc2cc(C3CC3)n[nH]2)nc1Nc1cc(C2CC2)n[nH]1 [Example 133]

pIC50 ([1]; IGF1R kinase LCCA assay): 6.30 to 7.30
pIC50 ([2]; IGF1R kinase LCCA assay): > 7.30
SMILES: CC(C)c1cc(Nc2cc(N3CCOCC3)nc(NCc3cc(-c4ccccc4)no3)n2)n[nH]1 [Example 496]

pIC50 ([1]; IGF1R kinase LCCA assay): 6.30 to 7.30
pIC50 ([2]; IGF1R kinase LCCA assay): > 7.30
SMILES: O=C(NCCN1CCCC1)c1cc(Nc2cc(C3CC3)[nH]n2)nc(NCc2cc(-c3ccccc3)no2)n1 [Example 521]

pIC50 ([1]; IGF1R kinase LCCA assay): 5.30 to 6.30
pIC50 ([2]; IGF1R kinase LCCA assay): 5.30 to 6.30
SMILES: O=C(NCc1ccccc1)c1nc(Nc2ccccc2Cl)nc(Nc2cc(C3CC3)n[nH]2)c1[N+](=O)[O-] [Example 239]

pIC50 ([1]; IGF1R kinase LCCA assay): 6.30 to 7.30
pIC50 ([2]; IGF1R kinase LCCA assay): > 7.30
SMILES: CC(C)c1cc(Nc2cc(N3CCN(C)CC3)nc(NCc3cc(-c4ccccc4)no3)n2)n[nH]1 [Example 497]

Second part, the compound before the results:

SMILES: COc1ccc(CNc2ncc(Br)c(Nc3cc(C4CC4)n[nH]3)n2)cc1OC [Example 247]
pIC50 ([1]; IGF1R kinase LCCA assay): < 5.30
pIC50 ([2]; IGF1R kinase LCCA assay): 5.30 to 6.30

SMILES: CCCCNc1cc(C)nc(NCc2cc(-c3ccccc3)no2)n1 [Example 293]
pIC50 ([1]; IGF1R kinase LCCA assay): < 5.30
pIC50 ([2]; IGF1R kinase LCCA assay): < 5.30

SMILES: Cc1cc(Nc2cc(C3CC3)[nH]n2)nc(NC(c2ccccc2)c2nc(-c3ccccc3)co2)n1 (stereo not shown) [Example 572]
pIC50 ([1]; IGF1R kinase LCCA assay): 5.30 to 6.30
pIC50 ([2]; IGF1R kinase LCCA assay): 5.30 to 6.30

SMILES: Cc1cc(Nc2n[nH]cc2C#N)nc(NCc2cc(-c3ccccc3)no2)n1 [Example 306]
pIC50 ([1]; IGF1R kinase LCCA assay): < 5.30
pIC50 ([2]; IGF1R kinase LCCA assay): < 5.30

SMILES: Cc1cc(Nc2cc(N3CCOCC3)nc(NCc3cc(C)no3)n2)[nH]n1 [Example 627, N^2-[(3-methylisoxazol-5-yl)methyl]-N^4-(3-methyl-1H-pyrazol-5-yl)-6-morpholin-4-ylpyrimidine-2,4-diamine]
pIC50 [1]: 5.30 to 6.30
pIC50 [2]: 6.30 to 7.30

SMILES: CSc1ccccc1Nc1ncc(Br)c(Nc2cc(C3CC3)n[nH]2)n1 [Example 131]
pIC50 ([1]; IGF1R kinase LCCA assay): 5.30 to 6.30
pIC50 ([2]; IGF1R kinase LCCA assay): 6.30 to 7.30

SMILES: Cc1cc(Nc2cc(C3CC3)n[nH]2)nc(Nc2cc(Cl)cc(Cl)c2)n1 [Example 274]
pIC50 ([1]; IGF1R kinase LCCA assay): 5.30 to 6.30
pIC50 ([2]; IGF1R kinase LCCA assay): < 5.30

SMILES: Cc1cc(Nc2cc(C3CC3)n[nH]2)nc(Nc2ccc(N3CCN(C)CC3)cc2)n1 [Example 569]
pIC50 ([1]; IGF1R kinase LCCA assay): 5.30 to 6.30
pIC50 ([2]; IGF1R kinase LCCA assay): 5.30 to 6.30

SMILES: CC(C)c1cc(CNc2nc(Nc3cc(C4CC4)[nH]n3)cc(OCCN3CCOCC3)n2)on1 [Example 594, N^4-(5-cyclopropyl-1H-pyrazol-3-yl)-N^2-{[3-(1-methylethyl)isoxazol-5-yl]methyl}-6-[(2-morpholin-4-ylethyl)oxy]pyrimidine-2,4-diamine]
pIC50 [1]: 5.30 to 6.30
pIC50 [2]: > 7.30

SMILES: CC(C)(C)OC(=O)N1CC[C@H](NC(=O)c2cccc(Nc3ncc(Br)c(Nc4cc(C5CC5)n[nH]4)n3)c2)C1 [Example 141]
pIC50 ([1]; IGF1R kinase LCCA assay): 5.30 to 6.30
pIC50 ([2]; IGF1R kinase LCCA assay): 6.30 to 7.30

SMILES: Cc1cnc(Nc2ccc(C(=O)NC3CCN(C)CC3)cc2)nc1Nc1cc(C2CC2)n[nH]1 [Example 157]
pIC50 ([1]; IGF1R kinase LCCA assay): 5.30 to 6.30
pIC50 ([2]; IGF1R kinase LCCA assay): 5.30 to 6.30

SMILES: CC(C)c1cc(CNc2nc(Nc3cc(C4CC4)n[nH]3)cc(OCCN3CCCCC3)n2)on1 [Example 597, N^4-(3-cyclopropyl-1H-pyrazol-5-yl)-N^2-{[3-(1-methylethyl)isoxazol-5-yl]methyl}-6-[(2-piperidin-1-ylethyl)oxy]pyrimidine-2,4-diamine]
pIC50 [1]: 6.30 to 7.30
pIC50 [2]: > 7.30

SMILES: COc1ccc(-c2cc(CNc3ncc(Br)c(Nc4cc(C5CC5)[nH]n4)n3)on2)cc1 [Example 277]
pIC50 ([1]; IGF1R kinase LCCA assay): < 5.30
pIC50 ([2]; IGF1R kinase LCCA assay): < 5.30

SMILES: CN1CCN(c2cc(Nc3cc(C4CC4)[nH]n3)nc(NCc3cc(-c4ccccn4)no3)n2)CC1 [Example 611, N^4-(5-cyclopropyl-1H-pyrazol-3-yl)-6-(4-methylpiperazin-1-yl)-N^2-[(3-pyridin-2-ylisoxazol-5-yl)methyl]pyrimidine-2,4-diamine]
pIC50 [1]: 6.30 to 7.30
pIC50 [2]: > 7.30

SMILES: c1ccc(-c2cc(CNc3nc(Nc4cc(C5CC5)n[nH]4)cc(N4CCCC4)n3)on2)cc1 [Example 12]
pIC50 ([1]; IGF1R kinase LCCA assay): 6.30 to 7.30
pIC50 ([2]; IGF1R kinase LCCA assay): 6.30 to 7.30
